Literature values as cited in patent US8128958B2, “Sustained release pharmaceutical composition” (Astellas Pharma Inc., priority 2003, dated 2012).
Where a name gives a salt, the structure may show the parent alone.

Columns and labels:
[1] = not given; remark: listed apart in the source

day on which plasma concentration profiles reached the steady state (repeatedly administered per os for seven days): 4 days
frequency of orthostatic syncope, headache and sleepiness ([1]; package insert, psychoneural area): less than 0.1%
SMILES: CCOc1ccccc1OCCN[C@H](C)Cc1ccc(OC)c(S(N)(=O)=O)c1 [tamsulosin hydrochloride, (R)(−)-5-[2-[[2-(o-ethoxyphenoxy)ethyl]-amino]propyl]-2-methoxybenzenesulfonamide]
Cmax and AUC versus dose (0.1 to 0.6 mg orally, healthy adult volunteers): increased almost in proportion to the dose administered
adverse reactions (including abnormal clinical data) presumably related to the agent ([1]; 104 cases among 4724 cases, research in use upon approval and post marketing surveillance in Japan): 2.2%
frequency of hypotension, postural hypotension, blood pressure, tachycardia and palpitation ([1]; package insert, circulatory area): less than 0.1%
